These results are taken from ChEMBL document CHEMBL1133348, “Quinonic derivatives active against a virulent strain of Toxoplasma gondii. Synthesis of 2-methylfuro[2,3-g]- and [3,2-g]isoquinolinetriones” (2000).

In the experiment the test system is THP-1. The experiment in a line: Percentage growth inhibition of Toxoplasma gondii at concentration of 2 ug/mL using an human myelomonocytic cell line THP-1. It counts as functional. The conditions noted are these: read-out: GI.
With `Cc1cnc2c(c1)C(=O)c1c(oc(C)c1C)C2=O`, the inhibition of growth at 2 µg/mL worked out at 96.5%.
Take `Cc1cc2c(o1)C(=O)c1cc(O)ncc1C2=O`: the inhibition of growth at 2 µg/mL is 92%.
In the case of `Cc1cc2c(o1)C(=O)C=C(Br)C2=O`, the inhibition of growth at 2 µg/mL was 83%.
To `Cc1c2c(cc(=O)n1C)C(=O)c1ccccc1C2=O` belongs 56%.
`CCOc1cnc2c(c1C)C(=O)c1oc(C)c(C)c1C2=O`: the inhibition of growth at 2 µg/mL came to 89.5%.
Take `Cc1cc2c(o1)C(=O)c1cnc(O)cc1C2=O`: the inhibition of growth at 2 µg/mL is 62%.
To `O=C1c2ccccc2C(=O)c2cc(O)ncc21` belongs 80%; to `Cn1cc2c(cc1=O)C(=O)c1ccccc1C2=O`, 52%.
`Cc1nc(O)cc2c1C(=O)c1cccc(O)c1C2=O`: the inhibition of growth at 2 µg/mL came out at 50%.
Turning to `O=C1c2cc(O)ncc2C(=O)c2c(O)cccc21`, the inhibition of growth at 2 µg/mL worked out at 54%.
With `O=C1C=C(Br)C(=O)c2ccccc21` [2-Bromo-1,4-naphthoquinone], the inhibition of growth at 2 µg/mL was 66%.
`O=C1C(O)=C([C@H]2CC[C@H](c3ccc(Cl)cc3)CC2)C(=O)c2ccccc21` [ATOVAQUONE]: the inhibition of growth at 2 µg/mL stood at 95%.
Consider `CCC[C@@H]1C[C@@H](C(=O)N[C@@H]([C@H]2O[C@H](SC)[C@H](O)[C@@H](O)[C@H]2O)[C@H](C)Cl)N(C)C1` [CLINDAMYCIN], for which the inhibition of growth at 2 µg/mL turned out to be 86%.
In the case of `CCc1nc(N)nc(N)c1-c1ccc(Cl)cc1` [PYRIMETHAMINE], the inhibition of growth at 2 µg/mL was determined as 94%.
For the molecule `Nc1ccc(S(=O)(=O)Nc2ncccn2)cc1` [SULFADIAZINE], the inhibition of growth at 2 µg/mL was 90%.
